Data: PubChem BioAssay AID1324 (NMMLSC, 2008)
Active and inactive are the calls of the source. No rule for the calls is given here.

The compounds below were run against glutathione S-transferase (GST-GSH binding) (assay: GST–glutathione interaction disruption – biochemical, multiplex beads, flow cytometry, HPSMTB buffer, profiling panel (AID 1324;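 also: glutathione beads loaded with GST-green fluorescent protein and no fluorescent Bim peptide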)). Conditions: multiplex bead flow cytometry, MCF.
Compound `O=c1c2c(-c3ccccc3)csc2nc2c3ccccc3c(NCCN3CCOCC3)nn12` has an EC50 of 0.21 µM. `c1ccc(Nc2cccc(Nc3ccccc3)n2)cc1` was tested, and the EC50 was “inactive”. Work on `COc1cccc(/C=N/Nc2nn3cnnc3c3ccccc23)c1` yielded an EC50 of 7.28 µM. With `COc1ccc(-n2c(=O)c3ccccc3c3ccccc3c2=O)c(OC)c1` the EC50 was “inactive”. For `O=S1(=O)N=C(N(CCO)/N=C/c2ccncc2)c2ccccc21`, the EC50 was “inactive”.

Same assay, conditions: multiplex bead flow cytometry, MCF, active compounds read high, concentration not given here
`COc1ccc(-c2nnc(SCC(=O)Nc3nc4ccccc4s3)n2C)cc1` was tested, and the percent span inhibition was “inactive”. In the case of `CC(=O)NC1=C(NC2CCS(=O)(=O)C2)C(=O)c2ccccc2C1=O` (centres undefined), the percent span inhibition is reported as “inactive”. `O=C(Cn1c2ccccc2c(=O)c2ccccc21)N/N=C/c1ccc(N2CCCC2)c([N+](=O)[O-])c1` was tested, and the percent span inhibition was “inactive”. With `O=C(Oc1ccc(-c2cnc3ccccc3n2)cc1)c1cccc([N+](=O)[O-])c1` the percent span inhibition was “inactive”. With `Cc1cc(C)c2nc3nc(C)c(C)cc3c(N)c2c1` the percent span inhibition was “inactive”. With `Clc1nssc1=Nc1ccccc1` the percent span inhibition was “inactive”. In the case of `Cc1ccc(S(=O)(=O)N2CCCCC2)cc1NC(=O)COC(=O)c1ccccc1F`, the percent span inhibition is reported as “inactive”. `O=C(Nc1ccccc1N1CCOCC1)c1cccs1` was tested, and the percent span inhibition was “inactive”. `CCCC1(C(=O)OCC)NC(c2cc(OC)c(OC)c(OC)c2)C2C(=O)N(CC)C(=O)C21` (centres undefined) was tested, and the percent span inhibition was “inactive”. With `CN=c1scc(-c2cccs2)n1/N=C/c1ccc(O)c(O)c1O` the percent span inhibition was “inactive”. `COC(=O)CCC(=O)Nc1sc(C)c(C)c1C(N)=O` was tested, and the percent span inhibition was “inactive”. `CN1CCc2cccc3c2[C@H]1Cc1ccc(O)c(O)c1-3` was tested, and the percent span inhibition was “inactive”. For `CN1/C(=C\C(=O)Nc2ccc(Cl)cc2)C(C)(C)c2ccccc21`, the percent span inhibition was “inactive”. `Cc1cc(C(=O)NCCCN(C)C)c2ccccc2n1` was tested, and the percent span inhibition was “inactive”. For `CCN(CC)S(=O)(=O)c1cccc(C(=O)N/N=C/c2ccc(O)c(O)c2O)c1`, the percent span inhibition was “inactive”. `CC1=NN(c2ccc(C)cc2)C(=O)/C1=C\c1ccc(Br)s1` was tested, and the percent span inhibition was “inactive”. In the case of `Cc1ccc(/C=C2/NC(=O)N(Cc3ccc(Br)cc3)C2=O)o1`, the percent span inhibition is reported as “inactive”. For `O=C(NCCN1CCOCC1)c1cc(Cl)ccc1[N+](=O)[O-]`, the percent span inhibition was “inactive”. With `Cc1cc(C)nc(SCc2cc(=O)c(OC(=O)c3cccc([N+](=O)[O-])c3)co2)n1` the percent span inhibition was “inactive”. In the case of `Cc1cc(-c2csc(N)n2)c(C)n1CCC(C)C`, the percent span inhibition is reported as “inactive”. With `CCOc1ncccc1C(=O)OC(C)C(=O)Nc1ccc(CC)cc1` (centres undefined) the percent span inhibition was “inactive”. With `C=CCn1c(C)cc(-c2csc(NC)n2)c1C` the percent span inhibition was “inactive”. In the case of `Cc1nnc(NCc2n[nH]c(=O)c3ccccc23)c2ccccc12`, the percent span inhibition is reported as “inactive”. With `CCOc1ccccc1C(=O)NC1CC2CCCC(C1)N2C1CC1` (centres undefined) the percent span inhibition was “inactive”. With `Cc1cc(C)c2c(N)c3cccc(C)c3nc2n1` the percent span inhibition was “inactive”. `CCCn1c(N2CCN(C)CC2)nc2c1c(=O)[nH]c(=O)n2C` was tested, and the percent span inhibition was “inactive”. `O=C(Cc1ccccc1)OCCNC(=O)c1cccnc1` was tested, and the percent span inhibition was “inactive”. In the case of `Cn1c(CCNC(=O)C2CCCCC2)nc2cc(NC(=O)c3cccs3)ccc21`, the percent span inhibition is reported as “inactive”. For `Cc1cccc(N2CCN(C(=S)Nc3ccc4nc(N5CCN(C)CC5)cc(C)c4c3)CC2)c1C`, the percent span inhibition was “inactive”. In the case of `COc1cc(/C=N/NC(=O)CN(Cc2ccco2)S(=O)(=O)c2ccccc2)ccc1O`, the percent span inhibition is reported as “inactive”. For `COc1ccc(C(=O)Nc2ccc(NC(=O)c3cccs3)cc2)cc1Cl`, the percent span inhibition was “inactive”. In the case of `COc1cc2c(cc1OC)C(c1ccccc1F)OC(=O)C2` (centres undefined), the percent span inhibition is reported as “inactive”. With `Cc1ccc(-c2cc(C(=O)Nc3ccccc3C)c3ccccc3n2)o1` the percent span inhibition was “inactive”. `CN(CCc1ccccn1)C(=O)CCC1CCCN(C(=O)NC2CCCCC2)C1` (centres undefined) was tested, and the percent span inhibition was “inactive”. With `COc1ccc(NC(=O)c2ccc3c(c2)NC(=O)CS3)cc1S(=O)(=O)Nc1ccc(Br)cc1` the percent span inhibition was “inactive”. For `Cc1cc(C)n(CC(=O)N/N=C/c2cccc([N+](=O)[O-])c2)n1`, the percent span inhibition was “inactive”. For `CCn1c(C)c(/C=N/Nc2nc3ccccc3s2)c2ccccc21`, the percent span inhibition was “inactive”. In the case of `Cc1nc2ncccn2c1-c1csc(Nc2ccccc2)n1`, the percent span inhibition is reported as “inactive”. With `O=C(Nc1cccc(Cl)c1)Nc1ccc(Cl)cn1` the percent span inhibition was “inactive”. In the case of `CCOC(=O)/C(=C\c1cccc(O)c1)c1nc2sc(C)c(C)c2c(=O)[nH]1`, the percent span inhibition is reported as “inactive”. `O=c1[nH]c2ccc(N=Cc3c(O)ccc4cc(Br)ccc34)cc2[nH]1` was tested, and the percent span inhibition was “inactive”. With `N#Cc1ccc(N=c2ssnc2Cl)cc1` the percent span inhibition was “inactive”. `CCOC(=O)CSC1=NC(=O)/C(=C/c2ccc(OC)cc2)S1` was tested, and the percent span inhibition was “inactive”. In the case of `O=C1c2ccccc2C(=O)c2cc(S(=O)(=O)Nc3ccccc3)ccc21`, the percent span inhibition is reported as “inactive”. In the case of `Cc1ccc(-c2cc(C(=O)Nc3cc(C(=O)O)ccc3C)c3ccccc3n2)cc1`, the percent span inhibition is reported as “inactive”. With `Clc1nc2ccccc2cc1/C=N/Nc1nc2ccccc2[nH]1` the percent span inhibition was “inactive”. `CCOc1ccccc1/C=N/NC(=O)CNC(=O)COc1ccccc1` was tested, and the percent span inhibition was “inactive”. With `CCOCCOc1nc2c(c(=O)n(C)c(=O)n2C)n1CCc1ccccc1` the percent span inhibition was “inactive”. `O=C(OCc1cnc(Cl)s1)c1cccc(Cl)c1Cl` was tested, and the percent span inhibition was “inactive”. `Cc1nonc1NC(=O)CSc1nnc(-c2ccoc2C)n1C` was tested, and the percent span inhibition was “inactive”. With `O=C(Nc1ccccc1)c1ccc2nc(-c3ccco3)c(-c3ccco3)nc2c1` the percent span inhibition was “inactive”. In the case of `S=c1[nH]cc(-c2ccccc2)n1-c1ccccc1Cl`, the percent span inhibition is reported as “inactive”. With `COc1ccc(S(=O)(=O)NCCSc2ccccc2)cc1OC` the percent span inhibition was “inactive”. For `Nc1c(C(=O)NC2CC2)sc2nc3c(c(-c4ccco4)c12)CC/C3=C/c1ccco1`, the percent span inhibition was “inactive”. For `C#CCn1cc(C=C2C(=O)c3ccccc3C2=O)c2ccccc21`, the percent span inhibition was “inactive”. With `COC(=O)CCC(=O)Nc1sc(Cc2ccccc2)c(C)c1C(N)=O` the percent span inhibition was “inactive”. `Cc1ccc(C)n1-c1cccc(C(=O)O)c1` was tested, and the percent span inhibition was “inactive”. For `CN(C(=O)NC1CCCCC1)c1ccccc1`, the percent span inhibition was “inactive”. In the case of `COc1ccccc1-n1c(-c2ccc(Cl)cc2)c[nH]c1=S`, the percent span inhibition is reported as “inactive”. With `COCCN=c1scc(-c2cccs2)n1/N=C/c1ccc(O)c(O)c1O` the percent span inhibition was “inactive”. `O=C(NCC1CCCO1)c1ccc2c(=O)n(-c3ccc(F)cc3)c(=S)[nH]c2c1` (centres undefined) was tested, and the percent span inhibition was “inactive”. In the case of `COc1ccc(C(=O)/C=C/c2cc(OC)c(O)c(OC)c2)c(F)c1`, the percent span inhibition is reported as “inactive”. `Cc1cc(N)ccc1N1CCCC1` was tested, and the percent span inhibition was “inactive”. For `Cc1nc2scc(-c3ccccc3)c2c(=O)n1N=C1C=CC(=O)C=C1`, the percent span inhibition was “inactive”. With `COc1ccc(NC(=O)Cc2c(F)cccc2Cl)c(OC)c1` the percent span inhibition was “inactive”. For `CNc1nc2ccccc2n1/N=C/c1cccc(OC)c1OC`, the percent span inhibition was “inactive”. For `COc1cccc(C(=O)/C=C/Nc2ccc(S(=O)(=O)Nc3onc(C)c3C)cc2)c1`, the percent span inhibition was “inactive”. In the case of `CCOC(=O)c1nc(Nc2ccc(C(=O)OC)cc2)c2ccccc2n1`, the percent span inhibition is reported as “inactive”. `CCOC(=O)c1ccc(NC(=O)CSCCC(=O)O)cc1` was tested, and the percent span inhibition was “inactive”.
